Measured values reported in PMC8486872, “A rational blueprint for the design of chemically-controlled protein switches” (Nature Communications, 2021).
pIC50: −log10 of the molar value. Where “and” joins values, the source holds several entries; their conditions need not be identical. Equal entries are not always repeated. Where two headings read alike, the source gives them in different places.

Columns and labels:
[1] = system: JAK/STAT pathway SEAP expression in HEK293T cells; assay: CDH-GEMS receptor signaling SEAP assay; type: cell-based; conditions: Suppl Fig 9d
From the text: To test modularity and performance robustness of the CDHs in different molecular contexts, we inserted these modules in the generalizable extracellular molecule sensor (GEMS) receptor signaling pathway platform[24] and built CDH-GEMS. In these constructs the CDHs are localized extracellularly and function as ectodomain switches, fused to the backbone of the erythropoietin receptor, and an intracellular interleukin 6 receptor domain which activates the JAK/STAT pathway (Fig. 3d). The CDH-GEMS trigger the activation of the JAK/STAT pathway by the dimerization of their subunits. Thus, the drugs are expected to split the CDHs inactivating the signaling pathway as assessed by the expression of the reporter protein SEAP. All three CDH-GEMS were responsive to their respective drugs dynamic response range varied from approximately 6-fold (CDH-2) to 8-fold (CDH-1,3) (Fig. 3e). […] The CDH-GEMS were also reversible upon intermittent drug treatment (Supplementary Fig. 7h, i). Despite that comparisons between CDH-TFs and CDH-GEMS are not straightforward due to differences in the reporter signaling pathways, we observe a general trend for the CDHs to present lower IC50s when used as extracellular modules, which is consistent with overcoming drug permeability issues in cells.
HEK293T cells were maintained in DMEM medium with 10% FBS (Gibco) and Pen/Strep (Thermo Fisher). Cells were maintained and split every two days at around 80% confluence. HEK293T cells were seeded 24 h before transfection, and transfected with the lipofectamine 3000 kit (Thermo Fisher). Plasmids were cotransfected according to the Table S7. For the drug OFF-switch experiments, drugs were added 12 h post transfection and incubated with cells for 24 h before the SEAP detection assay.
Secreted alkaline phosphatase (SEAP) activity (U/L) in cell culture supernatants was quantified by kinetic measurements at 405 nm (1 min/measurement for 30 cycles) of absorbance increase due to phosphatase-mediated hydrolysis of para-nitrophenyl phosphate (pNPP).
Apparent IC50s of SPR drug competition assay were calculated using three-parameter nonlinear regression in GraphPad Prism (Version 8.3.0). Representative data of cellular assays are presented as individual values and mean values (bars). n = 3 refers to biological replicates. All IC50/EC50 values of cellular assays (CDH-TF, CDH-GEMS, AIR-TF and AIR-GEMS) reported were calculated using four-parameter nonlinear regression ± s.d.
Supplementary Figure 9: Comparison of ON-state reporter expression of weak affinity variants of LD3 in CDH-1/2-GEMS platform. a) ON-state expression of CDH-1-GEMS with LD3 and LD3_v3. b) Drug dose-dependent responses in engineered cells determined for the CDH-1-GEMS with LD3 and LD3_v3. c) ON-state expression of CDH-2-GEMS with LD3 and LD3_v3. d) Drug dose-dependent responses in engineered cells determined for the CDH-2-GEMS with LD3 and LD3_v3. In the data shown HEK293T cells were […]
quantification was done 24 hours after drug treatment. a, c) The bar charts show the mean ± s.d. of n = 3 biologically independent samples overlaid with a scatter dot plot of the original data points. b, d) Each […]
parameter nonlinear regression.
(1 picture or pasted object on this page, not shown here)

[2] = system: SEAP expression in HEK293T cells; assay: MISO designer cells (CDH-1 + CDH-3 dual switches); type: cell-based; set-up: SEAP / Bottom (best-fit value) / Top (best-fit value) / Span (best-fit value): unit not given here; conditions: for logIC50 (best-fit value): drug in nM; for SEAP, Drug-3 turn OFF CDH-3-TF (with 1 µM Drug-1): Fig S13f; for SEAP, Drug-3 turn OFF CDH-3-GEMS (+1 µM Drug-3): Fig S13g, representative data; for pIC50: Homo sapiens, HEK-293T, read-out: IC50 (best-fit value)
From the text: Fig. 5 Orthogonal chemical switches enable implementation of multi-input multi-output control modes in mammalian cells. a Scheme of multi-inputs multi-outputs (MIMO) designer cells where two drugs control two different outputs. b, c Cells were co-transfected with AIR-1/2-GEMS and CDH-3-TF regulate SEAP and Luciferase expression, respectively. […] AIR-1/2-GEMS coupled with SEAP expression circuits were co-transfected with CDH-1/2-TF circuits which control the Luciferase production. Respective drug concentrations ranged from 0.001 nM to 1 µM. […]
We then engineered MISO cells (Fig. 5d) with CDH-1-TF and CDH-3-TF dual switches (Fig. 5e) that encode OFF behaviors controlled by Drug-1 and Drug-3. […] This output behavior is distinct from the typical SISO systems which only show two persistent states (high, low) (Fig. 2c, f). […] This type of output in biological systems could be utilized to produce graded levels of responses that are robust to minor oscillations in drug concentrations, and could be used to dissect fundamental biological processes but also to provide persistent response levels in translational applications.
1-TF and CDH-3-TF circuits. Drug-1 concentrations ranged from 0.001 nM to 1 µM (left) and 1 µM Drug-1 with serial diluted Drug-3 from 0.001 nM to 1 µM (right). g) Quantification of SEAP activity controlled […]
by CDH-1-GEMS and CDH-3-GEMS circuits. […]
Luciferase production (l). b-k) Each data point represents the mean of n = 3 biological replicates, and the dose-dependent curve were fitted using four-parameter nonlinear regression.

[3] = Fig5e SEAP, CDH-3-TF, four-parameter fit
[4] = Fig5f SEAP, CDH-3-GEMS, three-parameter fit

In the case of CC1(C)CCC(CN2CCN(c3ccc(C(=O)NS(=O)(=O)c4ccc(NCC5CCOCC5)c([N+](=O)[O-])c4)c(Oc4cnc5[nH]ccc5c4)c3)CC2)=C(c2ccc(Cl)cc2)C1 [Drug-2, Venetoclax], the SEAP % ([1]; Bcl2:LD3, 0.001 nM) was 300.653% and 318.178% and 392.457%, the SEAP % ([1]; Bcl2:LD3, 0.01 nM) was 308.454% and 345.509% and 340.557% and the SEAP % ([1]; Bcl2:LD3, 0.1 nM) was 274.777% and 330.791% and 315.073%. The SEAP % ([1]; Bcl2:LD3, 1 nM) was 266.802% and 312.808% and 313.179%, the SEAP % ([1]; Bcl2:LD3, 10 nM) was 230.526% and 261.334% and 264.64% and the SEAP % ([1]; Bcl2:LD3, 50 nM) was 182.557% and 182.048% and 191.603%. For the same compound, the SEAP % ([1]; Bcl2:LD3, 100 nM) was 137.415% and 148.555% and 171.413%, the SEAP % ([1]; Bcl2:LD3, 500 nM) was 103.855% and 121.158% and 118.471% and the SEAP % ([1]; Bcl2:LD3, 1000 nM) was 85.4687% and 78.7046% and 88.4921%. For the same compound, the SEAP % ([1]; Bcl2:LD3_v3, 0.001 nM) was 435.755% and 579.505% and 634.353%, the SEAP % ([1]; Bcl2:LD3_v3, 0.01 nM) was 426.219% and 513.058% and 543.118% and the SEAP % ([1]; Bcl2:LD3_v3, 0.1 nM) was 389.885% and 497.895% and 507.442%. For the same compound, the SEAP % ([1]; Bcl2:LD3_v3, 1 nM) was 349.489% and 416.083% and 425.558%, the SEAP % ([1]; Bcl2:LD3_v3, 10 nM) was 179.661% and 237.904% and 242.508% and the SEAP % ([1]; Bcl2:LD3_v3, 50 nM) was 112.482% and 132.539% and 150.605%. The SEAP % ([1]; Bcl2:LD3_v3, 100 nM) was 97.6884% and 119.034% and 118.118%, the SEAP % ([1]; Bcl2:LD3_v3, 500 nM) was 69.1684% and 95.9179% and 92.604% and the SEAP % ([1]; Bcl2:LD3_v3, 1000 nM) was 52.9029% and 66.0602% and 70.7894%.
COc1cc2c(cc1OC(C)C)[C@H](c1ccc(Cl)cc1)N(c1ccc(N(C)C[C@H]3CC[C@H](N4CCN(C)C(=O)C4)CC3)cc1)C(=O)C2 [Drug-3, NVP-CGM097] was tested, and the “Bottom (best-fit value)” value [2, 3] was 17.47, the “HillSlope (best-fit value)” value [2, 3] was -0.6148 and the “Span (best-fit value)” value [2, 3] was 17.06. For the same compound, the “Top (best-fit value)” value [2, 3] was 34.53, the “logIC50 (best-fit value)” value [2, 3] was 1.333 and the SEAP ([2]; Fig5e, turn OFF CDH-3-TF, 0.001 nM) was 33.8408 and 34.0469 and 34.3351. The SEAP ([2]; Fig5e, turn OFF CDH-3-TF, 0.01 nM) was 29.7183 and 31.0605 and 34.2655, the SEAP ([2]; Fig5e, turn OFF CDH-3-TF, 0.1 nM) was 37.5532 and 35.9265 and 39.0056 and the SEAP ([2]; Fig5e, turn OFF CDH-3-TF, 1 nM) was 35.3902 and 29.1113 and 33.3839. The SEAP ([2]; Fig5e, turn OFF CDH-3-TF, 10 nM) was 29.3646 and 23.7323 and 25.8725, the SEAP ([2]; Fig5e, turn OFF CDH-3-TF, 100 nM) was 25.079 and 20.2253 and 26.0755 and the SEAP ([2]; Fig5e, turn OFF CDH-3-TF, 1000 nM) was 15.9296 and 18.8913 and 19.9566. For the same compound, the “Bottom (best-fit value)” value [2, 4] was 53.47, the “Span (best-fit value)” value [2, 4] was 48.26 and the “Top (best-fit value)” value [2, 4] was 101.7. For the same compound, the “logIC50 (best-fit value)” value [2, 4] was 0.4646, the SEAP ([2]; Fig5f, turn OFF CDH-3-GEMS, 0.001 nM) was 113.362 and 89.612 and 99.5052 and the SEAP ([2]; Fig5f, turn OFF CDH-3-GEMS, 0.01 nM) was 121.028 and 91.7365 and 92.479. For the same compound, the SEAP ([2]; Fig5f, turn OFF CDH-3-GEMS, 0.1 nM) was 104.447 and 97.6051 and 99.9447, the SEAP ([2]; Fig5f, turn OFF CDH-3-GEMS, 1 nM) was 100.353 and 82.6179 and 86.7829 and the SEAP ([2]; Fig5f, turn OFF CDH-3-GEMS, 10 nM) was 58.8118 and 64.1853 and 65.9179. For the same compound, the SEAP ([2]; Fig5f, turn OFF CDH-3-GEMS, 100 nM) was 45.2413 and 57.2529 and 77.3068, the SEAP ([2]; Fig5f, turn OFF CDH-3-GEMS, 1000 nM) was 32.455 and 54.8353 and 61.4484 and the “SEAP, Drug-3 turn OFF CDH-3-TF (with 1 µM Drug-1)” value (“SEAP, Drug-3 turn OFF CDH-3-TF” below) ([2]; Drug-3 0.001 nM with 1 µM Drug-1) was 20.0495 U/L and 20.062 U/L and 15.0342 U/L. The “SEAP, Drug-3 turn OFF CDH-3-TF” value ([2]; Drug-3 0.01 nM with 1 µM Drug-1) was 17.0461 U/L and 19.1502 U/L and 14.3967 U/L, the “SEAP, Drug-3 turn OFF CDH-3-TF” value ([2]; Drug-3 0.1 nM with 1 µM Drug-1) was 19.7901 U/L and 16.3361 U/L and 16.2198 U/L and the “SEAP, Drug-3 turn OFF CDH-3-TF” value ([2]; Drug-3 1 nM with 1 µM Drug-1) was 20.2218 U/L and 16.2578 U/L and 17.1111 U/L. For the same compound, the “SEAP, Drug-3 turn OFF CDH-3-TF” value ([2]; Drug-3 10 nM with 1 µM Drug-1) was 16.1201 U/L and 11.9157 U/L and 15.1062 U/L, the “SEAP, Drug-3 turn OFF CDH-3-TF” value ([2]; Drug-3 100 nM with 1 µM Drug-1) was 12.136 U/L and 6.982 U/L and 12.7567 U/L and the “SEAP, Drug-3 turn OFF CDH-3-TF” value ([2]; Drug-3 1000 nM with 1 µM Drug-1) was 12.5352 U/L and 7.0164 U/L and 6.482 U/L. The “SEAP, Drug-3 turn OFF CDH-3-GEMS (+1 µM Drug-3)” value (“SEAP, Drug-3 turn OFF CDH-3-GEMS” below) ([2]; Drug-3 0.001 nM + 1 µM Drug-3) was 32.0934 U/L and 36.9962 U/L and 29.2725 U/L, the “SEAP, Drug-3 turn OFF CDH-3-GEMS” value ([2]; Drug-3 0.01 nM + 1 µM Drug-3) was 28.8246 U/L and 27.8451 U/L and 33.3513 U/L and the “SEAP, Drug-3 turn OFF CDH-3-GEMS” value ([2]; Drug-3 0.1 nM + 1 µM Drug-3) was 25.7325 U/L and 31.532 U/L and 32.3299 U/L. For the same compound, the “SEAP, Drug-3 turn OFF CDH-3-GEMS” value ([2]; Drug-3 1 nM + 1 µM Drug-3) was 22.1832 U/L and 28.8305 U/L and 36.3315 U/L, the “SEAP, Drug-3 turn OFF CDH-3-GEMS” value ([2]; Drug-3 10 nM + 1 µM Drug-3) was 20.2059 U/L and 25.0579 U/L and 21.1125 U/L and the “SEAP, Drug-3 turn OFF CDH-3-GEMS” value ([2]; Drug-3 100 nM + 1 µM Drug-3) was 19.7003 U/L and 17.1154 U/L and 24.8794 U/L. For the same compound, the “SEAP, Drug-3 turn OFF CDH-3-GEMS” value ([2]; Drug-3 1000 nM + 1 µM Drug-3) was 16.9947 U/L and 17.5781 U/L and 20.7969 U/L, the pIC50 ([2]; Fig5e SEAP, turn OFF CDH-3-TF, four-parameter fit) was 7.67 and the pIC50 ([2]; Fig5f SEAP, turn OFF CDH-3-GEMS, three-parameter fit) was 8.54.
